Reference: EP4745135A1 (Gluetacs Therapeutics (Shanghai) Co., Ltd., priority 2023, dated 2025)

What was measured:
CK1α = target: T1, CK1α (Homo sapiens, UniProt P48729+Q96SW2); experiment: Western blot, degradation of substrate protein in hPBMCs; type: cell-based
T1 construct: effects of the compounds of the present disclosure on the expression of target proteins in cells; endogenous in cells; host or cells: human PBMCs (Milecell Biotechnologies)

IKZF1 = target: T2, IKZF1 (Homo sapiens, UniProt Q13422+Q96SW2); experiment: as above; type: cell-based
T2 construct: effects of the compounds of the present disclosure on the expression of target proteins in cells; endogenous in cells; host or cells: human PBMCs (Milecell Biotechnologies)

IKZF2 = target: T3, IKZF2 (Homo sapiens, UniProt Q96SW2+Q9UKS7); experiment: as above; type: cell-based
T3 construct: effects of the compounds of the present disclosure on the expression of target proteins in cells; endogenous in cells; host or cells: human PBMCs (Milecell Biotechnologies)

IKZF3 = target: T4, IKZF3 (Homo sapiens, UniProt Q96SW2+Q9UKT9); experiment: as above; type: cell-based
T4 construct: effects of the compounds of the present disclosure on the expression of target proteins in cells; endogenous in cells; host or cells: human PBMCs (Milecell Biotechnologies)

WEE1 = target: T5, WEE1 (Homo sapiens, UniProt P30291+Q96SW2); experiment: as above; type: cell-based
T5 construct: effects of the compounds of the present disclosure on the expression of target proteins in cells; endogenous in cells; host or cells: human PBMCs (Milecell Biotechnologies)

GSPT1 = experiment: as above; type: cell-based, Human
[1] = target: T6, human Cereblon WT GST-tagged protein (Homo sapiens, UniProt Q96SW2); experiment: CRBN-binding affinity, HTRF (CEREBLON BINDING kit); details: for inhibition at 0.5 µM: read-out: Inhibition Rate at 0.5 µM (%); for inhibition at 2 µM: read-out: Inhibition Rate at 2 µM (%)
T6 construct: purchased CISBIO 64BDCRBNPEH

[2] = 24 hours treatment, compounds at 50 nM and 500 nM (concentration behind the class not stated)
[3] = Western blot, 24 hours of compound treatment, compounds tested at 50 nM and 500 nM (concentration for the table not stated)

T4 sequence (Q9UKT9 whole entry): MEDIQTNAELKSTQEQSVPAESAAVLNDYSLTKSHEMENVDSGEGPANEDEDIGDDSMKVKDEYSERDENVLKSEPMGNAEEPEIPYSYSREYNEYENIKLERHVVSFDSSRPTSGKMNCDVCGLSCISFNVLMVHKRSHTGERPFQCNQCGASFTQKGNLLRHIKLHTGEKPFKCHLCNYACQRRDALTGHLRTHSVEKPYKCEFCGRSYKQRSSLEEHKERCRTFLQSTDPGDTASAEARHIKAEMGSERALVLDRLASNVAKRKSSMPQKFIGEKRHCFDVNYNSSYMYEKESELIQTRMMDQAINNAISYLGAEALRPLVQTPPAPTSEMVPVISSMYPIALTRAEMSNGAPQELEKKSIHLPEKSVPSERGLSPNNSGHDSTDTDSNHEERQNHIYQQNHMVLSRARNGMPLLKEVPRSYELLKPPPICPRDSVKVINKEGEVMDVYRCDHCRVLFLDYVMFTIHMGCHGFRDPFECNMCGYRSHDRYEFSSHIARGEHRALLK
T4 sequence (Q96SW2 whole entry): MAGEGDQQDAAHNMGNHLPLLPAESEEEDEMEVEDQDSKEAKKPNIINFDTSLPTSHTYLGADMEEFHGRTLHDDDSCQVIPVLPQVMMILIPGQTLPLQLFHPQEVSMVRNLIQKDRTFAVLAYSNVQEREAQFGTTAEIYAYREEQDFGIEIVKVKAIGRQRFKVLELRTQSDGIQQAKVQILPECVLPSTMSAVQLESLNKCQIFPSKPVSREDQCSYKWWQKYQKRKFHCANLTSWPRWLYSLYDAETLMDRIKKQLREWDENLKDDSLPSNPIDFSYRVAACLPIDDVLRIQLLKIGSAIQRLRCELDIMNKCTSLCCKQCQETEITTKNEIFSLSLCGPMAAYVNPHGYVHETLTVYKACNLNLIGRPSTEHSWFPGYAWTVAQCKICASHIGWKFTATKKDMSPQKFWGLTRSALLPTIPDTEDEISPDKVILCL
T4 sequence (Q16531 whole entry partner): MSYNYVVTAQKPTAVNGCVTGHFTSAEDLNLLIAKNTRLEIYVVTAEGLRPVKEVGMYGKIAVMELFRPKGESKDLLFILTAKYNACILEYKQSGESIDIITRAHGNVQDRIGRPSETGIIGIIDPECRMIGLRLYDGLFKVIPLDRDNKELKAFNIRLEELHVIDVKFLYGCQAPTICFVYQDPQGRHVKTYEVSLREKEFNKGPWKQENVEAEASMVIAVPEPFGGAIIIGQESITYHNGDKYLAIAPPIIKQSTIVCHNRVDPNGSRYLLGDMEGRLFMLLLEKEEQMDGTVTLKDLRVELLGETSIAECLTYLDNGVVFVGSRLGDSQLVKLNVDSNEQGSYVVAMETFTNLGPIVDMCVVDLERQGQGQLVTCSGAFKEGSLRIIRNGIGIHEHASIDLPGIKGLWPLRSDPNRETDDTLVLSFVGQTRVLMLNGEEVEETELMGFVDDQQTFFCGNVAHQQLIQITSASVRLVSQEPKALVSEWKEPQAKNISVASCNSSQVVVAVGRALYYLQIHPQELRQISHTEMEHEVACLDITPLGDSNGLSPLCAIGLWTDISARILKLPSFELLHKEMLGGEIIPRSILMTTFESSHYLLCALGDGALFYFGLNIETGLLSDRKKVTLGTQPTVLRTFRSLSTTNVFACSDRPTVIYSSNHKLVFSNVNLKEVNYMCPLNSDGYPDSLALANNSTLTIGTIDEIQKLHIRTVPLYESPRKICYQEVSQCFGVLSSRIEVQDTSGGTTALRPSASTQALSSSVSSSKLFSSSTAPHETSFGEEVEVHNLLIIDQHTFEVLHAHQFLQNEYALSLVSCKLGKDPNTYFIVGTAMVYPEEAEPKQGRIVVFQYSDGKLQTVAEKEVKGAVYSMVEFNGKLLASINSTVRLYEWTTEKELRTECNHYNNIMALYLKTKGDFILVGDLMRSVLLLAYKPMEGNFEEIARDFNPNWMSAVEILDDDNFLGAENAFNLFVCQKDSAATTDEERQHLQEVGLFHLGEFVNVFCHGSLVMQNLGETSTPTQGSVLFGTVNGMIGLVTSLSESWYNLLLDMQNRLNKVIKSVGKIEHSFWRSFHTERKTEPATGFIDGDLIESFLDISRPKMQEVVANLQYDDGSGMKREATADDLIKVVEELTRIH
T5 sequence (P30291 whole entry): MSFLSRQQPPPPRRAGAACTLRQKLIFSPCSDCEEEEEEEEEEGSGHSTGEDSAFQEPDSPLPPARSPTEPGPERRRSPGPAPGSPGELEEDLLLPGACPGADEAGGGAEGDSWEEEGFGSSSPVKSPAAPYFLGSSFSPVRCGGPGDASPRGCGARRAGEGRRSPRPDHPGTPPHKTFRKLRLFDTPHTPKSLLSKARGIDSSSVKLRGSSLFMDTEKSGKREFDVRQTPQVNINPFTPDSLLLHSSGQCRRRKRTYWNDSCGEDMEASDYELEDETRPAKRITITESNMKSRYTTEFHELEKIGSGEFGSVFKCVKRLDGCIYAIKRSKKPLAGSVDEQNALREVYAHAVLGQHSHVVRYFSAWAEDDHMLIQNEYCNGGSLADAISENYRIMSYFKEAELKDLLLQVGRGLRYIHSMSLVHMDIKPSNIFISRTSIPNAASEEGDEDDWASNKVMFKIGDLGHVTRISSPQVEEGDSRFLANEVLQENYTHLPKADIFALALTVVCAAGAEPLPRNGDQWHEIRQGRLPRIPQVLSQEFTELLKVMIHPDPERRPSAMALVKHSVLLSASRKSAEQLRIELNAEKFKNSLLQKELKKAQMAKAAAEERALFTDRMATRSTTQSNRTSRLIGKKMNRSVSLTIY
T5 sequence (Q96SW2 whole entry): as the sequence (Q96SW2 whole entry) above
T5 sequence (Q16531 whole entry partner): as the sequence (Q16531 whole entry partner) above
T1 sequence (P48729 whole entry): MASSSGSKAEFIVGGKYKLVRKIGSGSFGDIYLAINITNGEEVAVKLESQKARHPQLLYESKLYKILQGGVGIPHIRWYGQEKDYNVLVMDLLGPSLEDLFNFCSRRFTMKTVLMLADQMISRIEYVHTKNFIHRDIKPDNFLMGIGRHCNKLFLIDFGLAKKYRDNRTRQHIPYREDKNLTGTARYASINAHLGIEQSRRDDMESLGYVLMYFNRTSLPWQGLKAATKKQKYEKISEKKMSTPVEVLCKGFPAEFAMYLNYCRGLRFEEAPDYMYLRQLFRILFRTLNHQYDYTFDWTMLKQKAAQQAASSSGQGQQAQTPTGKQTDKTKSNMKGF
T1 sequence (Q96SW2 whole entry): as the sequence (Q96SW2 whole entry) above
T1 sequence (Q16531 whole entry partner): as the sequence (Q16531 whole entry partner) above
T3 sequence (Q9UKS7 whole entry): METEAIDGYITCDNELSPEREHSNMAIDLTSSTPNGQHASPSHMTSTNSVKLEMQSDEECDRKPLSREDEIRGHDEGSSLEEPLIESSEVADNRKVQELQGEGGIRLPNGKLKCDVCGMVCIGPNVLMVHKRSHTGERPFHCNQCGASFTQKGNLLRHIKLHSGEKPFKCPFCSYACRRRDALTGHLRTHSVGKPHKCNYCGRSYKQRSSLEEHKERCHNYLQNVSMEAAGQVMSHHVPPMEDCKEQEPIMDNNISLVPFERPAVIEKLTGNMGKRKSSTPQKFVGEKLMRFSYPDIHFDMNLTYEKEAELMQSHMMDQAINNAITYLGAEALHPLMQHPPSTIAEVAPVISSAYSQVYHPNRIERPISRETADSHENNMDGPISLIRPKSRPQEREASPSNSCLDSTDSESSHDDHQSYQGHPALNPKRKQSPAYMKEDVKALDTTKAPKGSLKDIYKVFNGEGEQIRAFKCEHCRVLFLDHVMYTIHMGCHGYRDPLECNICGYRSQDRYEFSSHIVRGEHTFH
T3 sequence (Q96SW2 whole entry): as the sequence (Q96SW2 whole entry) above
T3 sequence (Q16531 whole entry partner): as the sequence (Q16531 whole entry partner) above
T2 sequence (Q13422 whole entry): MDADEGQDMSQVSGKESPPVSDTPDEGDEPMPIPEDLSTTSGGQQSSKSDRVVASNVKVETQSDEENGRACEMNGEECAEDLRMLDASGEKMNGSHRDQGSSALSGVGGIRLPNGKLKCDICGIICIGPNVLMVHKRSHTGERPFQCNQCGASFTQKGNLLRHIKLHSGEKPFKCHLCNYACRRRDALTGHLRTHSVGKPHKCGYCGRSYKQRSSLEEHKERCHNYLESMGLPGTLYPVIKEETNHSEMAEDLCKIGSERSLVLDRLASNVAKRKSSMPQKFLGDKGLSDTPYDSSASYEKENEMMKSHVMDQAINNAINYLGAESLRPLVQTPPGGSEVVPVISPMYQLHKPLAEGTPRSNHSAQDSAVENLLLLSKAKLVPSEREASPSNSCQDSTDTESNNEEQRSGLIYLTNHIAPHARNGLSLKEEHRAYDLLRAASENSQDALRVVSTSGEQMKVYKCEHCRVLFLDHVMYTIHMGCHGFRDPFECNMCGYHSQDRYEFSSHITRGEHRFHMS
T2 sequence (Q96SW2 whole entry): as the sequence (Q96SW2 whole entry) above
T2 sequence (Q16531 whole entry partner): as the sequence (Q16531 whole entry partner) above
T6 sequence (Q96SW2 whole entry): as the sequence (Q96SW2 whole entry) above

| Structure (SMILES) | CK1α substrate protein remaining % (CK1α; [2]) | IKZF 1 substrate protein remaining % (IKZF1; [2]) | IKZF2 substrate protein remaining % (IKZF2; [2]) | IKZF3 substrate protein remaining % (IKZF3; [2]) | Wee1 substrate protein remaining % (WEE1; [2]) | GSPT1 substrate protein remaining % (GSPT1; [2]) | inhibition at 0.5 µM [1] [%] | inhibition at 2 µM [1] [%] | CK1α substrate protein remaining % (CK1α; [3]) | IKZF 1 substrate protein remaining % (IKZF1; [3]) | IKZF2 substrate protein remaining % (IKZF2; [3]) | IKZF3 substrate protein remaining % (IKZF3; [3]) | Wee1 substrate protein remaining % (WEE1; [3]) | GSPT1 substrate protein remaining % (GSPT1; [3]) |
| --- | --- | --- | --- | --- | --- | --- | --- | --- | --- | --- | --- | --- | --- | --- |
| O=C1CCC(N2Cc3cc(CN4CCN(c5ncnc6sc7c(c56)CCCC7)CC4)ccc3C2=S)C(=O)N1 (stereo not shown) [GT-09300, 3-(5-((4-(5,6,7,8-tetrahydrobenzo[4,5]thieno[2,3-d]pyrimidin-4-yl)piperazin-1-yl)methyl)-1-thioxoisoindolin-2-yl)piperidine-2,6-dione] | B (80%< substrate protein remaining %≤ 100%) | A (0% ≤ substrate protein remaining % ≤ 80%) | A (0% ≤ substrate protein remaining % ≤ 80%) | A (0% ≤ substrate protein remaining % ≤ 80%) | B (80%< substrate protein remaining %≤ 100%) | B (80%< substrate protein remaining %≤ 100%) | 53 to 60 | 80 to 100 |  |  |  |  |  |  |
| O=C1CCC(N2Cc3cc(CN4CCN(c5ccccn5)CC4)ccc3C2=S)C(=O)N1 (stereo not shown) [GT-09216, 3-(5-((4-(pyridin-2-yl)piperazin-1-yl)methyl)-1-thioxoisoindolin-2-yl)piperidine-2,6-dione] |  |  |  |  |  |  | 60 to 80 | 80 to 100 | B (80%< substrate protein remaining %≤ 100%) | B (80%< substrate protein remaining %≤ 100%) | B (80%< substrate protein remaining %≤ 100%) | B (80%< substrate protein remaining %≤ 100%) | B (80%< substrate protein remaining %≤ 100%) | A (0% ≤ substrate protein remaining % ≤ 80%) |
| O=C1CCC(N2Cc3cc(CN4CCN(c5nccc(I)c5F)CC4)ccc3C2=S)C(=O)N1 (stereo not shown) [GT-09227, 3-(5-((4-(3-fluoro-4-iodopyridin-2-yl)piperazin-1-yl)methyl)-1-thioxoisoindolin-2-yl)piperidine-2,6-dione] |  |  |  |  |  |  | 60 to 80 | 80 to 100 | A (0% ≤ substrate protein remaining % ≤ 80%) | B (80%< substrate protein remaining %≤ 100%) | B (80%< substrate protein remaining %≤ 100%) | B (80%< substrate protein remaining %≤ 100%) | B (80%< substrate protein remaining %≤ 100%) | A (0% ≤ substrate protein remaining % ≤ 80%) |
| Cc1cscc1C1=CCN(Cc2cccc3c2CN(C2CCC(=O)NC2=O)C3=S)CC1 (stereo not shown) [GT-08308, 3-(4-((4-(4-methylthiophen-3-yl)-3,6-dihydropyridin-1(2H)-yl)methyl)-1-thioxoisoindolin-2-yl)piperidine-2,6-dione] | B (80%< substrate protein remaining %≤ 100%) | B (80%< substrate protein remaining %≤ 100%) | B (80%< substrate protein remaining %≤ 100%) | B (80%< substrate protein remaining %≤ 100%) | A (0% ≤ substrate protein remaining % ≤ 80%) | B (80%< substrate protein remaining %≤ 100%) | 53 to 60 | 60 to 80 |  |  |  |  |  |  |
| O=C1CCC(N2Cc3c(CN4CCC(c5ncc6ccsc6n5)CC4)cccc3C2=S)C(=O)N1 (stereo not shown) [GT-08936, 3-(4-((4-(thieno[2,3-d]pyrimidin-2-yl)piperidin-1-yl)methyl)-1-thioxoisoindolin-2-yl)piperidine-2,6-dione] | B (80%< substrate protein remaining %≤ 100%) | A (0% ≤ substrate protein remaining % ≤ 80%) | B (80%< substrate protein remaining %≤ 100%) | B (80%< substrate protein remaining %≤ 100%) | A (0% ≤ substrate protein remaining % ≤ 80%) | A (0% ≤ substrate protein remaining % ≤ 80%) | 60 to 80 | 80 to 100 |  |  |  |  |  |  |
| O=C1CCC(N2Cc3c(CN4CCN(c5ccc(Cl)cn5)CC4)cccc3C2=S)C(=O)N1 (stereo not shown) [GT-08694, 3-(4-((4-(5-chloropyridin-2-yl)piperazin-1-yl)methyl)-1-thioxoisoindolin-2-yl)piperidine-2,6-dione] |  |  |  |  |  |  | 40 to 53 | 60 to 80 | B (80%< substrate protein remaining %≤ 100%) | B (80%< substrate protein remaining %≤ 100%) | B (80%< substrate protein remaining %≤ 100%) | B (80%< substrate protein remaining %≤ 100%) | A (0% ≤ substrate protein remaining % ≤ 80%) | A (0% ≤ substrate protein remaining % ≤ 80%) |
| Cc1nc(C2CCN(Cc3ccc4c(c3)CN(C3CCC(=O)NC3=O)C4=S)CC2)c2ccsc2n1 (stereo not shown) [GT-09309, 3-(5-((4-(2-methylthieno[2,3-d]pyrimidin-4-yl)piperidin-1-yl)methyl)-1-thioxoisoindolin-2-yl)piperidine-2,6-dione] | B (80%< substrate protein remaining %≤ 100%) | B (80%< substrate protein remaining %≤ 100%) | B (80%< substrate protein remaining %≤ 100%) | B (80%< substrate protein remaining %≤ 100%) | B (80%< substrate protein remaining %≤ 100%) | A (0% ≤ substrate protein remaining % ≤ 80%) | 60 to 80 | 80 to 100 |  |  |  |  |  |  |
| O=C1CCC(N2Cc3cc(CN4CCC(n5c(=O)[nH]c6cc(F)ccc65)CC4)ccc3C2=S)C(=O)N1 (stereo not shown) [GT-09263, 3-(5-((4-(5-fluoro-2-oxo-2,3-dihydro-1H-benzo[d]imidazol-1-yl)piperidin-1-yl)methyl)-1-thioxoisoindolin-2-yl)piperidine-2,6-dione] | B (80%< substrate protein remaining %≤ 100%) | B (80%< substrate protein remaining %≤ 100%) | B (80%< substrate protein remaining %≤ 100%) | B (80%< substrate protein remaining %≤ 100%) | B (80%< substrate protein remaining %≤ 100%) | A (0% ≤ substrate protein remaining % ≤ 80%) | 60 to 80 | 80 to 100 |  |  |  |  |  |  |
